Molecules are shown by their SMILES.

System in the first data set: not listed separately
Kind of data set: log P determination by HPLC (EEC Directive 79/831 Annex V.A8, reversed-phase C18). In kind it is physicochemical. The following applies: reversed-phase C18 HPLC column, C18, 43° C., 0.1% aqueous phosphoric acid/acetonitrile gradient. As to the method: The log P values given in Table 1 were determined in accordance with EEC Directive 79/831 Annex V.A8 by HPLC (High Performance Liquid Chromatography) using a reversed-phase column (C18). Temperature: 43° C. Mobile phase: 0.1% aqueous phosphoric acid, acetonitrile; linear gradient from 10% acetonitrile to 90% acetonitrile Calibration was carried out using unbranched alkan-2-ones (having 3 to 16 C atoms) with known log P values. (Determination of the log P values by the retention times using linear interpolation between two successive alkanones).
In turn, `CC(c1ccc(Cl)cc1)N1CSCC/C1=N\C#N` (stereo not drawn) [Example 51] displayed a chromatographic logP of 2.63. Still for that read-out and setting: with `CC1CN(C)/C(=N\C#N)N(C(C)c2ccc(Cl)cc2)C1` (stereo not drawn) [Example 50] the figure was 2.52; with `CC(=O)Oc1ccc(CCN2CCS/C2=N\C#N)cc1` [Example 46], 1.89. The same measure, in the same setting: with `CC(c1ccc(Cl)cc1)N1CCCN(C)C1=NC#N` (stereo not drawn) [Example 28] the figure was 2.23; with `Cc1ccc(C(C)N2CCSC2=NC#N)cc1` (stereo not drawn) [Example 12], 3.06; with `CC1CN/C(=N\C#N)N(C(C)c2ccc(Cl)cc2)C1` (stereo not drawn) [Example 49], 2.65. The same measure, in the same setting: with `CSc1ccc(Oc2ccccc2CCN2CCS/C2=N\C#N)cc1` [Example 45] the figure was 3.33; with `CC(c1ccc(Cl)cc1)N1COCC/C1=N\C#N` (stereo not drawn) [Example 52], 2.28; with `CC(c1ccc(Cl)cc1Cl)N1CCCO/C1=N\C#N` (stereo not drawn) [Example 47], 2.43.

As to `CCC(c1ccc(Cl)cc1)N1CCS/C1=N\C#N` (stereo not drawn) [Example 39], the chromatographic logP was 2.81. As to `CC(c1ccc(Cl)cc1)N1CCN(C)C1=NC#N` (stereo not drawn) [Example 23], the chromatographic logP amounted to 2.29. Still for that read-out and setting: with `N#CN=C1SCCN1C1Cc2ccc(Cl)cc2C1` (stereo not drawn) [Example 33] the figure was 2.68. In turn, `N#CN=C1SCCN1C(CF)c1ccc(Cl)cc1` (stereo not drawn) [Example 18] gave a chromatographic logP of 2.41.

Consider `CC(c1ccc(Cl)cc1)N1CCCN/C1=N\C(N)=S` (stereo not drawn) [Example 41], for which the chromatographic logP worked out at 1.48.

`CC(c1ccc(Cl)cc1)N1OCCN(C)/C1=N\C#N` (stereo not drawn) [Example 42] displayed a chromatographic logP of 2.21. The same measure, in the same setting: with `CC(c1ccc(Cl)cc1)N1CCCN(C)/C1=N\C(N)=S` (stereo not drawn) [Example 43] the figure was 1.48; with `CCc1ccc(C(C)N2CCSC2=NC#N)cc1` (stereo not drawn) [Example 7], 2.09; with `CC(c1ccc(Cl)cc1)N1CC[S+]([O-])/C1=N\C#N` (stereo not drawn) [Example 40], 1.86.

`CC(C)c1ccc(C(C)N2CCSC2=NC#N)cc1` (stereo not drawn) [Example 15] gave a chromatographic logP of 3.11. Same read-out and setting: with `CSc1ccc(Oc2cccc(CCN3CCSC3=NC#N)c2)cc1` [Example 21] the figure was 3.29. On the same count and under the same terms, with `CC(c1ccc(Cl)c(Cl)c1)N1CCCO/C1=N\C#N` (stereo not drawn) [Example 48] the figure was 2.59; with `CC(c1ccc(Cl)c(Cl)c1)N1CCSC1=NC#N` (stereo not drawn) [Example 13], 2.84.

A further data set relates to Meloidogyne incognita larvae. Kind of data set: Meloidogyne test/aqueous system. In kind it is in vivo. To be noted: 40 ppm; nematicidal action by activity of the larvae; 96-well plate; 100% = no activity found. The protocol:
Meloidogyne Test/Aqueous System To prepare a suitable preparation of active compound, 1 part by weight of active compound is mixed with 1 000 parts by weight of methanol, and per preparation to be tested, 10 μl are added to a well of a 96-well plate (from Greiner), where the solvent evaporates. In the 96-well plates, the wells containing the active compound are filled with lecithin solution (0.01%) and Meloidogyne incognita larvae suspension. The concentration of active compound is now 40 ppm. After the time indicated in the table, the nematicidal action is determined in % by the activity of the larvae. 100% means that no activity has been found; 0% means that the activity in the treated wells corresponds to that of the untreated control.
For the compound `CC(c1ccc(Cl)cc1)N1CCSC1=NC#N` (stereo not drawn) [Example 14], the “Effect in % after 4 days” value came out at 100%.

For another data set, the system named is Meloidogyne incognita egg/larvae. As to the kind of experiment: Meloidogyne test (sand, lettuce, gall formation). In kind it is in vivo. The following applies: 20 ppm; nematicidal action by gall formation on lettuce roots; 100% = no galls. As to the method:
To prepare a suitable preparation of active compound, 1 part by weight of active compound is mixed with 30 parts by weight of dimethylformamide and 1 part by weight of emulsifier (alllylaryl polyglycol ether), and the concentrate is diluted with water to the desired concentration.
Containers are filled with sand, solution of active compound, Meloidogyne incognita egg/larvae suspension and lettuce seeds. The lettuce seeds germinate and the plants develop. On the roots, galls are formed.
After the period of time indicated in the table, the nematicidal action is determined in % using gall formation as a measure. 100% means that no galls were found; 0% means that the number of galls on the treated plants corresponds to that of the untreated control.
In this test, for example, the following compounds of the Preparation Examples show good activity: […]
As for `CCC(c1ccccc1Cl)N1CCSC1=NC#N` (stereo not drawn) [Example 4], the “Effect in % after 4 days” value worked out at 100%. Regarding `CC(c1ccc(Cl)cc1)N1CCSC1=NC#N` (stereo not drawn) [Example 14], the “Effect in % after 4 days” value is on record as 100%. Same read-out and setting: with `CC(c1ccc(Cl)cc1)N1CCCN(C)C1=NC#N` (stereo not drawn) [Example 28] the figure was 95%; with `CC(c1ccccc1Cl)N1CCSC1=NC#N` (stereo not drawn) [Example 3], 100%. The same measure, in the same setting: with `CC(c1ccc(Cl)cc1)N1CCN(C)C1=NC#N` (stereo not drawn) [Example 23] the figure was 90%; with `CC(c1ccc(Cl)cc1)N1CCNC1=NC#N` (stereo not drawn) [Example 1, 1-[1-(4-Chlorophenyl)ethyl]-2-imidazolidinylidenecyanamide], 98%; with `CC(c1ccc(Cl)cc1)N1CCCC1=NC#N` (stereo not drawn) [Example 22], 100%.
